Source: publication doi:10.1101/2021.06.16.448769v1 (bioRxiv, 2021)
Where two headings read alike, the source gives them in different places. Bridge positions count the residues as written; N and C are the ends. Square brackets hold non-standard residues; d marks the D form. Ends that are not written are not given here. Peptide text beside a SMILES is read from it. * marks the point of attachment. Cam = NC(=O)C*

What was measured:
human C5 = human C5 (Homo sapiens, UniProt P01031); test: SPR multi-cycle kinetics, binding to human C5; conditions: for fold change in KD relative to parent: relative to the unmodified parent knob domain, Figure 5H
Sequence of human C5 (P01031 19-673 limits assumed): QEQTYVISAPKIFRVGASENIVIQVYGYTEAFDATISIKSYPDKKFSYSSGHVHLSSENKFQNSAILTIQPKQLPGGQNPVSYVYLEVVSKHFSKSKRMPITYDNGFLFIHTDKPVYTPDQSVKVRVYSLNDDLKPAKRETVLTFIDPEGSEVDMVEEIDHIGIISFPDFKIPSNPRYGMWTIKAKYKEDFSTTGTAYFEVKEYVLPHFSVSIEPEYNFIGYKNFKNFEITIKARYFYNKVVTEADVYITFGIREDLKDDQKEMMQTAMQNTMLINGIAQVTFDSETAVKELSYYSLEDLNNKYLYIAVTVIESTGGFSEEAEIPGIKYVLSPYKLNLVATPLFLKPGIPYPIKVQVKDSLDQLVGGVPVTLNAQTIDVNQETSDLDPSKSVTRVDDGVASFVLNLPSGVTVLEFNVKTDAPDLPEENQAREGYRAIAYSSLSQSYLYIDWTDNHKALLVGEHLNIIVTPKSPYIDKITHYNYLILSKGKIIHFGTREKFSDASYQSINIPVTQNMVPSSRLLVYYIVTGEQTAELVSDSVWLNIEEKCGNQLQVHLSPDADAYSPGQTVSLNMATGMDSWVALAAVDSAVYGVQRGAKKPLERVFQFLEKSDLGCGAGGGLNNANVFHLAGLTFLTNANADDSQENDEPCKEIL
Sequence of human C5 (P01031 678-1676 limits assumed): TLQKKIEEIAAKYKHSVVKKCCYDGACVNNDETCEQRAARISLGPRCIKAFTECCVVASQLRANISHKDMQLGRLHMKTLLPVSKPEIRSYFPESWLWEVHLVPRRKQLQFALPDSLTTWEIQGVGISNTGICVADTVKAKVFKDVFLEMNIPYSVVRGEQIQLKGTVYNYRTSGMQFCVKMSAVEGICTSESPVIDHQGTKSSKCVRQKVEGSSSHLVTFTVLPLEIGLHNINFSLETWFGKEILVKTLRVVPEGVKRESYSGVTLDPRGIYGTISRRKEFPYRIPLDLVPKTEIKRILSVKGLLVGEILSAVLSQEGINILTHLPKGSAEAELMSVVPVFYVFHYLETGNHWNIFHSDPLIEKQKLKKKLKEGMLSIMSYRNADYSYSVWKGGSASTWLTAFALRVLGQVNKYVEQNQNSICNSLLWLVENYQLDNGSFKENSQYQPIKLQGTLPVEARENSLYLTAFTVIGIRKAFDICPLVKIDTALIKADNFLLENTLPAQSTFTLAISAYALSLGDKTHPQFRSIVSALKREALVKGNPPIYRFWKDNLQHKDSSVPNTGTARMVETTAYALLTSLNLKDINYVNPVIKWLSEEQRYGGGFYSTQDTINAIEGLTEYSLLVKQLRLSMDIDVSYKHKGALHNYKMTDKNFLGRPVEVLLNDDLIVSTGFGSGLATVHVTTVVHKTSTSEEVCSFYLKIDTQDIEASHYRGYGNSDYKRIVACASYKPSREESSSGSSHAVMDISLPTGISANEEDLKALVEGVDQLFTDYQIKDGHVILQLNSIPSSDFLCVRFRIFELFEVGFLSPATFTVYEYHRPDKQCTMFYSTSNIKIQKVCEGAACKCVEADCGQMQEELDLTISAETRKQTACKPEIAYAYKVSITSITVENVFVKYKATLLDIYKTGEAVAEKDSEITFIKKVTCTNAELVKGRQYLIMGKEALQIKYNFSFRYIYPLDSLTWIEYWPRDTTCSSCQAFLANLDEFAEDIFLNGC

[1] = system: C5 activation (C5b-6), alternative pathway; test: Alternative pathway; type: biochemical
[2] = KD, peptide after reduction and capping of cysteines with iodoacetamide (IAM)
[3] = KD, reduced and IAM-capped knob domains, S4
[4] = reduced and IAM-capped knob domains, S4

CC[C@H](C)[C@@H]1NC(=O)[C@H](CC(N)=O)NC(=O)[C@H](C(C)C)NC(=O)CNC(=O)[C@@H]2CSSC[C@@H](C(=O)NCC(=O)N[C@@H](Cc3c[nH]cn3)C(=O)N[C@@H](Cc3ccccc3)C(=O)N[C@@H](CC(C)C)C(=O)N[C@@H](CC(N)=O)C(=O)N[C@@H](CO)C(=O)NCC(=O)N3CCC[C@H]3C(=O)N[C@@H](CC(N)=O)C(=O)N[C@H](C(=O)N[C@@H](CO)C(=O)N3CCC[C@H]3C(=O)N[C@@H](Cc3ccc(O)cc3)C(=O)N[C@H](C(=O)N[C@@H](CO)C(=O)N[C@H](C(=O)O)[C@@H](C)O)C(C)C)[C@@H](C)CC)NC(=O)CNC(=O)[C@H](Cc3c[nH]c4ccccc34)NC(=O)[C@H](CCCNC(=N)N)NC(=O)CNC(=O)[C@H](CSSC[C@H](NC(=O)[C@@H](N)[C@@H](C)O)C(=O)N3CCC[C@H]3C(=O)N[C@@H](CCC(=O)O)C(=O)NCC(=O)N[C@@H](Cc3c[nH]c4ccccc34)C(=O)N[C@@H](CO)C(=O)N[C@@H](CCC(=O)O)C(=O)N2)NC(=O)[C@H](CCC(=O)O)NC(=O)[C@H](Cc2ccc(O)cc2)NC(=O)CNC(=O)[C@H](Cc2ccc(O)cc2)NC1=O [K92chemFE A12N] (H-TCPEGWSECGVNIYGYECGRWGCGHFLNSGPNISPYVST-OH; disulfide 2-18, 9-23; N-terminus and C-terminus assumed)
fold change in KD relative to parent (human C5): 4.6

CC[C@H](C)[C@H](NC(=O)[C@H](C)NC(=O)[C@@H](NC(=O)CNC(=O)[C@H](CSCC(N)=O)NC(=O)[C@H](CCC(=O)O)NC(=O)[C@H](CO)NC(=O)[C@H](Cc1c[nH]c2ccccc12)NC(=O)CNC(=O)[C@H](CCC(=O)O)NC(=O)[C@@H]1CCCN1C(=O)[C@H](CSCC(N)=O)NC(=O)[C@@H](N)[C@@H](C)O)C(C)C)C(=O)N[C@@H](Cc1ccc(O)cc1)C(=O)NCC(=O)N[C@@H](Cc1ccc(O)cc1)C(=O)N[C@@H](CCC(=O)O)C(=O)N[C@@H](CSCC(N)=O)C(=O)NCC(=O)N[C@@H](CCCNC(=N)N)C(=O)N[C@@H](Cc1c[nH]c2ccccc12)C(=O)NCC(=O)N[C@@H](CSCC(N)=O)C(=O)NCC(=O)N[C@@H](Cc1c[nH]cn1)C(=O)N[C@@H](Cc1ccccc1)C(=O)N[C@@H](CC(C)C)C(=O)N[C@@H](CC(N)=O)C(=O)N[C@@H](CO)C(=O)NCC(=O)N1CCC[C@H]1C(=O)N[C@@H](CC(N)=O)C(=O)N[C@H](C(=O)N[C@@H](CO)C(=O)N1CCC[C@H]1C(=O)N[C@@H](Cc1ccc(O)cc1)C(=O)N[C@H](C(=O)N[C@@H](CO)C(=O)N[C@H](C(=O)O)[C@@H](C)O)C(C)C)[C@@H](C)CC [K92 chemFE reduced and capped] (H-TC(Cam)PEGWSEC(Cam)GVAIYGYEC(Cam)GRWGC(Cam)GHFLNSGPNISPYVST-OH; N-terminus assumed)
Kd (human C5; [2]): 2000 nM
Kd (human C5; [3]): 2350 nM
koff (human C5; [4]): 0.000172 s⁻¹
kon (human C5; [4]): 72.9 M⁻¹ s⁻¹

CSCC[C@@H]1NC(=O)[C@@H]2CCCN2C(=O)[C@@H]2CSSC[C@H](NC(=O)[C@H](CCCNC(=N)N)NC(=O)CNC(=O)[C@H](C(C)C)NC1=O)C(=O)N[C@@H](CC(C)C)C(=O)N[C@@H](C)C(=O)N1CCC[C@H]1C(=O)N[C@@H](CCCNC(=N)N)C(=O)N[C@@H](CC(N)=O)C(=O)N[C@@H]([C@@H](C)O)C(=O)N[C@@H](CO)C(=O)N[C@H]1CSSC[C@H](NC(=O)[C@H](Cc3ccccc3)NC(=O)[C@H](CC(=O)O)NC(=O)[C@H](CC(=O)O)NC(=O)[C@H](Cc3c[nH]c4ccccc34)NC(=O)[C@H](CO)NC(=O)[C@H](CCCNC(=N)N)NC(=O)[C@H](Cc3ccc(O)cc3)NC(=O)[C@H](CO)NC(=O)[C@H](Cc3ccccc3)NC(=O)CNC(=O)[C@H](CC(=O)O)NC(=O)[C@@H]3CCCN3C1=O)C(=O)N2 [K149chemFE^cyclic] (cyclo(APRNTSCPDGFSYRSWDDFCCPMVGRCL); disulfide 7-20, 21-27 (inferred); ring closure inferred)
fold change in KD relative to parent (human C5): 0.2

GC(Cam)PPGYKSGVDC(Cam)SPGSEC(Cam)KWGC(Cam)YAVDGRRYGGYGADSGVGS-OH [K57chemFE reduced and capped]
Kd (human C5; [2]): 76 nM
Kd (human C5; [3]): 75.6 nM
koff (human C5; [4]): 0.000358 s⁻¹
kon (human C5; [4]): 4740 M⁻¹ s⁻¹

cyclo(ADSGVGSTGCPPGYKSGVDCSPGSECKWGCYAVDGRRYGGYG) (disulfide 10-26, 20-30 (inferred); ring closure inferred) [K57chemFE^cyclic]
fold change in KD relative to parent (human C5): 0.8

CC[C@H](C)[C@@H]1NC(=O)[C@H](CCCCNC(C)=O)NC(=O)[C@H](C(C)C)NC(=O)CNC(=O)[C@@H]2CSSC[C@@H](C(=O)NCC(=O)N[C@@H](Cc3c[nH]cn3)C(=O)N[C@@H](Cc3ccccc3)C(=O)N[C@@H](CC(C)C)C(=O)N[C@@H](CC(N)=O)C(=O)N[C@@H](CO)C(=O)NCC(=O)N3CCC[C@H]3C(=O)N[C@@H](CC(N)=O)C(=O)N[C@H](C(=O)N[C@@H](CO)C(=O)N3CCC[C@H]3C(=O)N[C@@H](Cc3ccc(O)cc3)C(=O)N[C@H](C(=O)N[C@@H](CO)C(=O)N[C@H](C(=O)O)[C@@H](C)O)C(C)C)[C@@H](C)CC)NC(=O)CNC(=O)[C@H](Cc3c[nH]c4ccccc34)NC(=O)[C@H](CCCNC(=N)N)NC(=O)CNC(=O)[C@H](CSSC[C@H](NC(=O)[C@@H](N)[C@@H](C)O)C(=O)N3CCC[C@H]3C(=O)N[C@@H](CCC(=O)O)C(=O)NCC(=O)N[C@@H](Cc3c[nH]c4ccccc34)C(=O)N[C@@H](CO)C(=O)N[C@@H](CCC(=O)O)C(=O)N2)NC(=O)[C@H](CCC(=O)O)NC(=O)[C@H](Cc2ccc(O)cc2)NC(=O)CNC(=O)[C@H](Cc2ccc(O)cc2)NC1=O [K92chemFE A12K(Ac)] (H-TCPEGWSECGVK(Ac)IYGYECGRWGCGHFLNSGPNISPYVST-OH; disulfide 2-18, 9-23; N-terminus and C-terminus assumed)
fold change in KD relative to parent (human C5): 130.2
effect in AP ELISA (in words) [1]: two-fold increase in efficacy

CC[C@H](C)[C@H](NC(=O)[C@H](CC(N)=O)NC(=O)[C@@H]1CCCN1C(=O)CNC(=O)[C@H](CO)NC(=O)[C@H](CC(N)=O)NC(=O)[C@H](CC(C)C)NC(=O)[C@H](Cc1ccccc1)NC(=O)[C@H](Cc1c[nH]cn1)NC(=O)CNC(=O)[C@@H]1CSSC[C@@H]2NC(=O)[C@H](CCC(=O)O)NC(=O)[C@H](CO)NC(=O)[C@H](Cc3c[nH]c4ccccc34)NC(=O)CNC(=O)[C@H](CCC(=O)O)NC(=O)[C@@H]3CCCN3C(=O)[C@@H](NC(=O)[C@@H](N)[C@@H](C)O)CSSC[C@H](NC(=O)[C@H](CCC(=O)O)NC(=O)[C@H](Cc3ccc(O)cc3)NC(=O)CNC(=O)[C@H](Cc3ccc(O)cc3)NC(=O)[C@H]([C@@H](C)CC)NC(=O)[C@@H](Cc3c[nH]c4ccccc34)NC(=O)[C@H](C(C)C)NC(=O)CNC2=O)C(=O)NCC(=O)N[C@@H](CCCNC(=N)N)C(=O)N[C@@H](Cc2c[nH]c3ccccc23)C(=O)NCC(=O)N1)C(=O)N[C@@H](CO)C(=O)N1CCC[C@H]1C(=O)N[C@@H](Cc1ccc(O)cc1)C(=O)N[C@H](C(=O)N[C@@H](CO)C(=O)N[C@H](C(=O)O)[C@@H](C)O)C(C)C [K92chemFE A12d-W] (H-TCPEGWSECGV[dW]IYGYECGRWGCGHFLNSGPNISPYVST-OH; disulfide 2-18, 9-23; N-terminus and C-terminus assumed)
fold change in KD relative to parent (human C5): 165.6

CSCC[C@@H]1NC(=O)[C@@H]2CCCN2C(=O)[C@@H](NC(=O)[C@@H]2CSSC[C@H](NC(=O)[C@@H](N)CO)C(=O)N3CCC[C@H]3C(=O)N[C@@H](CC(=O)O)C(=O)NCC(=O)N[C@@H](Cc3ccccc3)C(=O)N[C@@H](CO)C(=O)N[C@@H](Cc3ccc(O)cc3)C(=O)N[C@@H](CCCNC(=N)N)C(=O)N[C@@H](CO)C(=O)N[C@@H](Cc3c[nH]c4ccccc34)C(=O)N[C@@H](CC(=O)O)C(=O)N[C@@H](CC(=O)O)C(=O)N[C@@H](Cc3ccccc3)C(=O)N2)CSSC[C@@H](C(=O)N[C@@H](CC(C)C)C(=O)N[C@@H](C)C(=O)N2CCC[C@H]2C(=O)N[C@@H](CCCNC(=N)N)C(=O)N[C@@H](CC(N)=O)C(=O)O)NC(=O)[C@H](CCCNC(=N)N)NC(=O)CNC(=O)[C@H](C(C)C)NC1=O [K149chemSD-A] (H-SCPDGFSYRSWDDFCCPMVGRCLAPRN-OH; disulfide 2-15, 16-22; N-terminus assumed)
Kd (human C5; read-out: mean KD, SPR multi-cycle kinetics, mean of n=3): 7.3 nM

CC[C@H](C)[C@@H]1NC(=O)[C@H](C)NC(=O)[C@H](C(C)C)NC(=O)CNC(=O)[C@@H]2CSSC[C@@H]3NC(=O)CNC(=O)[C@H](Cc4c[nH]c5ccccc45)NC(=O)[C@H](CCCNC(=N)N)NC(=O)CNC(=O)[C@H](CSSC[C@H](NC(=O)[C@H]([C@@H](C)O)NC(=O)[C@H](Cc4ccc(O)cc4)NC(=O)[C@@H]4CCCN4C(=O)[C@H](CO)NC(=O)[C@H]([C@@H](C)CC)NC(=O)[C@H](CC(N)=O)NC(=O)[C@@H]4CCCN4C(=O)CNC(=O)[C@H](CO)NC(=O)[C@H](CC(N)=O)NC(=O)[C@H](CC(C)C)NC(=O)[C@H](Cc4ccccc4)NC(=O)[C@H](Cc4c[nH]cn4)NC(=O)CNC3=O)C(=O)N3CCC[C@H]3C(=O)N[C@@H](CCC(=O)O)C(=O)NCC(=O)N[C@@H](Cc3c[nH]c4ccccc34)C(=O)N[C@@H](CO)C(=O)N[C@@H](CCC(=O)O)C(=O)N2)NC(=O)[C@H](CCC(=O)O)NC(=O)[C@H](Cc2ccc(O)cc2)NC(=O)CNC(=O)[C@H](Cc2ccc(O)cc2)NC1=O [K92chemFE^cyclic] (cyclo(AIYGYECGRWGCGHFLNSGPNISPYTCPEGWSECGV); disulfide 7-27, 12-34)
fold change in KD relative to parent (human C5): 39.7
